Where a name gives a salt, the structure may show the parent alone.
Target: T1, Integrin alpha-4 (Homo sapiens, UniProt P05556+P13612)
T1 sequence (P13612 whole entry): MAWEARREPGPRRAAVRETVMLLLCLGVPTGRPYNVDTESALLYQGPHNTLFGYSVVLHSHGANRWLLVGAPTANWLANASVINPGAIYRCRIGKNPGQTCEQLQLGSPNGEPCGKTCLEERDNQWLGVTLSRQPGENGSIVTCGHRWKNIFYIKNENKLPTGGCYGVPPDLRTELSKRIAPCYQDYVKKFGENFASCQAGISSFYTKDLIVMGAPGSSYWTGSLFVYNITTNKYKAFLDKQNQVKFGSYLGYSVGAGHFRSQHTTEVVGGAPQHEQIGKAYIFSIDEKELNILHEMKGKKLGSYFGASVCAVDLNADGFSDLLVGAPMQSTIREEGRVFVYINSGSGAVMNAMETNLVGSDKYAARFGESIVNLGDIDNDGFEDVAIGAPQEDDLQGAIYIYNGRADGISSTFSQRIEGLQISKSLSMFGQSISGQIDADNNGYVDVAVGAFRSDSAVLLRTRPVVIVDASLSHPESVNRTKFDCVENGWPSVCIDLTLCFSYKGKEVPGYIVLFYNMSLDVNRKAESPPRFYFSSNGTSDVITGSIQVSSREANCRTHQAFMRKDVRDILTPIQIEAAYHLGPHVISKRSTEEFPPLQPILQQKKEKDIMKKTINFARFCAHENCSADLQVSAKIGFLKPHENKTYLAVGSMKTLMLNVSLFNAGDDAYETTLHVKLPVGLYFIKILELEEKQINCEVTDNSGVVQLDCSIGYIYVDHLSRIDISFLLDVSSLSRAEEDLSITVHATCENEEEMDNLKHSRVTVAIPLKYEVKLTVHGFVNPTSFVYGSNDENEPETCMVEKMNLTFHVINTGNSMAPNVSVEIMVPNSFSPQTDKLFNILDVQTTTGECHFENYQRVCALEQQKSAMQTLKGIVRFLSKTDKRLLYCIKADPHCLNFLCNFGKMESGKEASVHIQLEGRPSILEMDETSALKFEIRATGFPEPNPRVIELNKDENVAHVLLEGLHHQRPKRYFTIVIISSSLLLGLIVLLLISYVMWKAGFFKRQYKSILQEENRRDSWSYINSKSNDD
Assay: inhibition of LDV ligand binding to VLA-4 – cell-based, LDV-FITC binding, flow cytometry, dose response (AID 702)

| Compound | EC50 [µM] |
| --- | --- |
| O=c1c(CC[S+]([O-])c2ccccc2)c(O)n(-c2ccccc2)n1-c1ccccc1 (centres undefined) [1,2-Diphenyl-3,5-dioxo-4-(2-phenylsulfinylethyl)pyrazolidine] | 17.3 |
| OC(CN1CCOCC1)CN(c1ccccc1)c1ccccc1 (centres undefined) [1-(4-morpholinyl)-3-(N-phenylanilino)-2-propanol;hydrochloride] | 4.13 |
| COc1ccc(-n2ncc3c(N4CCCc5ccccc54)ncnc32)cc1 [1-[1-(4-methoxyphenyl)-1H-pyrazolo[3,4-d]pyrimidin-4-yl]-1,2,3,4-tetrahydroquinoline] | 52.6 |
| CN1C(=S)SC(N(O)C(=O)Nc2ccccc2)C1(C)C (centres undefined) [1-hydroxy-3-phenyl-1-(3,4,4-trimethyl-2-sulfanylidene-1,3-thiazolidin-5-yl)urea] | 31.8 |
| CCOC(=O)c1cnc(-n2nc(C)cc2C)nc1NC(C)c1ccccc1 (centres undefined) [2-(3,5-dimethyl-1-pyrazolyl)-4-(1-phenylethylamino)-5-pyrimidinecarboxylic acid ethyl ester] | 100 |
| COCCNC(=O)C(c1ccncc1)N(C(=O)Cn1nnc2ccccc21)c1ccc(OC)cc1 (centres undefined) [2-(N-[2-(1-benzotriazolyl)-1-oxoethyl]-4-methoxyanilino)-N-(2-methoxyethyl)-2-pyridin-4-ylacetamide] | > 100 |
| Cc1csc(NC(=O)CSc2nsc(SCC(=O)Nc3nc(C)cs3)c2C#N)n1 [2-[[4-cyano-3-[2-[(4-methyl-1,3-thiazol-2-yl)amino]-2-oxidanylidene-ethyl]sulfanyl-1,2-thiazol-5-yl]sulfanyl]-N-(4-methyl-1,3-thiazol-2-yl)ethanamide] | 20.2 |
| CCCCc1c(O)n(-c2ccccc2)n(-c2ccccc2)c1=O [3,5-Dioxo-1,2-diphenyl-4-n-butylpyrazolidine] | 1.06 |
| COc1ccc(-c2coc3c(CN4CCCCC4)c(O)c(CN4CCCCC4)c(O)c3c2=O)cc1 [3-(4-methoxyphenyl)-5,7-bis(oxidanyl)-6,8-bis(piperidin-1-ylmethyl)chromen-4-one] | 100 |
| CCCCC1(C(=O)OCC)CC(CN2CCOCC2)OC1=O (centres undefined) [3-butyl-2-keto-5-(morpholinomethyl)tetrahydrofuran-3-carboxylic acid ethyl ester] | 6.5 |
| CCOC(=O)N1CCC(NC(=O)CSCc2nc(-c3ccc(OC)c(OC)c3)oc2C)CC1 [4-[[2-[[2-(3,4-dimethoxyphenyl)-5-methyl-4-oxazolyl]methylthio]-1-oxoethyl]amino]-1-piperidinecarboxylic acid ethyl ester] | 0.08 |
| Nc1nonc1C(=O)NCCN=Cc1cc(Cc2ccccc2)cc(Br)c1O [4-amino-N-[2-[[(E)-(3-benzyl-5-bromo-6-oxocyclohexa-2,4-dien-1-ylidene)methyl]amino]ethyl]-1,2,5-oxadiazole-3-carboxamide] | > 100 |
| Cc1ccc(C(=O)NCC(C)(C)O)cc1 [4-methyl-N-(2-methyl-2-oxidanyl-propyl)benzamide] | 2.34 |
| COc1ccc(-c2nnc(Nc3nc4c(OC)cccc4s3)o2)c(OC)c1 [5-(2,4-dimethoxyphenyl)-N-(4-methoxy-1,3-benzothiazol-2-yl)-1,3,4-oxadiazol-2-amine] | 2.84 |
| COc1cccc2sc(Nc3nnc(-c4ccc(F)cc4)o3)nc12 [5-(4-fluorophenyl)-N-(4-methoxy-1,3-benzothiazol-2-yl)-1,3,4-oxadiazol-2-amine] | 6.08 |
| NC(=O)c1cc(N)ccc1N1CCCC1 [5-Amino-2-pyrrolidin-1-yl-benzamide] | > 100 |
| Cc1ccccc1CS(=O)(=O)Cc1ccc(C(=O)NCc2ccccn2)o1 [5-[(2-methylbenzyl)sulfonylmethyl]-N-(2-pyridylmethyl)-2-furamide] | > 100 |

| Compound | EC50 [µM] |
| --- | --- |
| O=S1(=O)Nc2c(ccc3cccnc23)-c2ccccc21 [5H-quinolino[8,7-c][1,2]benzothiazine 6,6-dioxide] | 19.9 |
| Cc1cc(=O)oc2c(CN3CCC(C)CC3)c(O)c(Cl)cc12 [6-chloranyl-4-methyl-8-[(4-methylpiperidin-1-yl)methyl]-7-oxidanyl-chromen-2-one] | 4.6 |
| COc1cccc(N2CCN(c3ncnc4c3[nH]c3ccc(F)cc34)CC2C)c1 (centres undefined) [8-fluoranyl-4-[4-(3-methoxyphenyl)-3-methyl-piperazin-1-yl]-5H-pyrimido[5,4-b]indole] | 8.78 |
| CC(N=O)C(=O)NCc1ccccn1 (centres undefined) [(2E)-2-(hydroxyimino)-N-(pyridin-2-ylmethyl)propanamide] | 0.09 |
| COc1ccc(C(=O)Oc2ccc(C(C)=O)cc2)c(OC)c1 [(4-acetylphenyl) 2,4-dimethoxybenzoate] | 5.14 |
| COc1cccc2sc(Nc3nc(-c4ccccn4)cs3)nc12 [(4-methoxy-1,3-benzothiazol-2-yl)-[4-(2-pyridyl)thiazol-2-yl]amine] | 6.78 |
| COc1ccc(Nc2cc(C)nc3ccccc23)cc1 [(4-methoxyphenyl)-(2-methyl-4-quinolyl)amine;hydrochloride] | 4.27 |
| C#CCN(C)C(C)Cc1ccccc1 (centres undefined) [Deprenyl] | > 100 |
| CCOc1ccc2[nH]c(=O)c(CN(CC3COCCO3)C(=O)C3CC3)cc2c1 (centres undefined) [MLS000031787] | 45.1 |
| COc1ccc(-c2nnc(Nc3nc4c(OC)cccc4s3)o2)cc1 [MLS000045458] | 7.92 |
| O=S(=O)(Nc1cccc2ncccc12)c1cccs1 [MLS000057468] | 11.4 |
| COc1ccc(OC)c(NC(=O)CCN2CCCC(C)C2)c1 (centres undefined) [MLS000070519] | 14.1 |
| CCCOc1ccc(C(CC(=O)O)NC(=O)c2ccc3c(c2)OCO3)cc1 (centres undefined) [MLS000085916] | 11.2 |
| CCOC(=O)c1c(C)oc2c1c1c(c3ccccc32)OCN(Cc2ccccn2)C1 [MLS000566323] | 4.38 |
| COc1cccc2sc(Nc3nnc(-c4cccs4)o3)nc12 [MolPort-003-038-736] | 3.27 |
| CCOC(=O)c1sc(Nc2nc3c(OC)cccc3s2)nc1C [SMR000027213] | 33.9 |
| CCOc1ccc(-n2c(O)c(C=NCCN3CCNCC3)c(=O)[nH]c2=O)cc1 [SMR000057873] | 5.13 |

From BindingDB's records for doi:10.7270/Q2H130FK (Nmmlsc, 2007)
